Assay results from patent US10723724B2, “Compounds for treating degenerative diseases of central nervous system or brain tumor, and uses thereof” (SUN YAT-SEN UNIVERSITY, priority 2016, dated 2020).

Assays:
[1] = molecular target: T1, PIK3CD/PIK3R1 (p110 delta/p85 alpha) (Homo sapiens, UniProt O00329); assay: Kinase screening service: PIK3CD/PIK3R1; assay type: biochemical; settings: average of duplicates
T1 construct: purchased Life Technologies Corporation (Kinase Screening Service)
Procedure: (§1) The inhibitory effect of PT109 on other kinases including SGK and JNK was detected by the Kinase Screening Service of Life Technologies Corporation (The concentration of compound 9 was 10 μM, measurements were performed in duplicates, and the value was represented by an average) to investigate the selectivity of the compound for JNK and SGK1.

PAK6 = molecular target: T2, PAK6 (Homo sapiens, UniProt Q9NQU5); assay: Kinase screening service: PAK6; assay type: biochemical; settings: average of duplicates
T2 construct: purchased Life Technologies Corporation (Kinase Screening Service)
Procedure: as §1

FGFR1 = molecular target: T3, FGFR1 (Homo sapiens, UniProt P11362); assay: Kinase screening service: FGFR1; assay type: biochemical; settings: average of duplicates
T3 construct: purchased Life Technologies Corporation (Kinase Screening Service)
Procedure: as §1

PLK4 = molecular target: T4, PLK4 (Homo sapiens, UniProt O00444); assay: Kinase screening service: PLK4; assay type: biochemical; settings: average of duplicates
T4 construct: purchased Life Technologies Corporation (Kinase Screening Service)
Procedure: as §1

PIK3C3 (hVPS34) = molecular target: T5, PIK3C3 (hVPS34) (Homo sapiens, UniProt Q8NEB9); assay: Kinase screening service: PIK3C3; assay type: biochemical; settings: average of duplicates
T5 construct: purchased Life Technologies Corporation (Kinase Screening Service)
Procedure: as §1

PTK2B (FAK2) = molecular target: T6, PTK2B (FAK2) (Homo sapiens, UniProt Q14289); assay: Kinase screening service: PTK2B; assay type: biochemical; settings: average of duplicates
T6 construct: purchased Life Technologies Corporation (Kinase Screening Service)
Procedure: as §1

FLT1 (VEGFR1) = molecular target: T7, FLT1 (VEGFR1) (Homo sapiens, UniProt P17948); assay: Kinase screening service: FLT1; assay type: biochemical; settings: average of duplicates
T7 construct: purchased Life Technologies Corporation (Kinase Screening Service)
Procedure: as §1

MST1R (RON) = molecular target: T8, MST1R (RON) (Homo sapiens, UniProt Q04912); assay: Kinase screening service: MST1R; assay type: biochemical; settings: average of duplicates
T8 construct: purchased Life Technologies Corporation (Kinase Screening Service)
Procedure: as §1

AKT1 (PKB alpha) = molecular target: T9, AKT1 (PKB alpha) (Homo sapiens, UniProt P31749); assay: Kinase screening service: AKT1; assay type: biochemical; settings: average of duplicates
T9 construct: purchased Life Technologies Corporation (Kinase Screening Service)
Procedure: as §1

DYRK1A = molecular target: T10, DYRK1A (Homo sapiens, UniProt Q13627); assay: Kinase screening service: DYRK1A; assay type: biochemical; settings: average of duplicates
T10 construct: purchased Life Technologies Corporation (Kinase Screening Service)
Procedure: as §1

CSNK1G2 (CK1 gamma 2) = molecular target: T11, CSNK1G2 (CK1 gamma 2) (Homo sapiens, UniProt P78368); assay: Kinase screening service: CSNK1G2; assay type: biochemical; settings: average of duplicates
T11 construct: purchased Life Technologies Corporation (Kinase Screening Service)
Procedure: as §1

PDK1 Direct = molecular target: T12, PDK1 Direct (Homo sapiens, UniProt O15530); assay: Kinase screening service: PDK1 Direct; assay type: biochemical; settings: average of duplicates
T12 construct: purchased Life Technologies Corporation (Kinase Screening Service)
Procedure: as §1

SGK3 = molecular target: T13, SGK3 (Homo sapiens, UniProt Q96BR1); assay: Kinase screening service (Life Technologies): SGK3; assay type: biochemical
T13 construct: purchased Life Technologies Corporation (kinase screening service)
Excerpt: The inhibitory effect of PT109 on SGK and INK was detected by the kinase screening commercialization service of Life Technologies Corporation.

WNK3 = molecular target: T14, WNK3 (Homo sapiens, UniProt Q9BYP7); assay: Kinase screening service: WNK3; assay type: biochemical; settings: average of duplicates
T14 construct: purchased Life Technologies Corporation (Kinase Screening Service)
Procedure: as §1

PIK3CG (p110 gamma) = molecular target: T15, PIK3CG (p110 gamma) (Homo sapiens, UniProt P48736); assay: Kinase screening service: PIK3CG; assay type: biochemical; settings: average of duplicates
T15 construct: purchased Life Technologies Corporation (Kinase Screening Service)
Procedure: as §1

PIK3C2A (PI3K-C2 alpha) = molecular target: T16, PIK3C2A (PI3K-C2 alpha) (Homo sapiens, UniProt O00443); assay: Kinase screening service: PIK3C2A; assay type: biochemical; settings: average of duplicates
T16 construct: purchased Life Technologies Corporation (Kinase Screening Service)
Procedure: as §1

MAP4K4 (HGK) = molecular target: T17, MAP4K4 (HGK) (Homo sapiens, UniProt O95819); assay: Kinase screening service: MAP4K4; assay type: biochemical; settings: average of duplicates
T17 construct: purchased Life Technologies Corporation (Kinase Screening Service)
Procedure: as §1

CSNK2A1 (CK2 alpha 1) = molecular target: T18, CSNK2A1 (CK2 alpha 1) (Homo sapiens, UniProt P68400); assay: Kinase screening service: CSNK2A1; assay type: biochemical; settings: average of duplicates
T18 construct: purchased Life Technologies Corporation (Kinase Screening Service)
Procedure: as §1

CSNK1G1 (CK1 gamma 1) = molecular target: T19, CSNK1G1 (CK1 gamma 1) (Homo sapiens, UniProt Q9HCP0); assay: Kinase screening service: CSNK1G1; assay type: biochemical; settings: average of duplicates
T19 construct: purchased Life Technologies Corporation (Kinase Screening Service)
Procedure: as §1

HCK = molecular target: T20, HCK (Homo sapiens, UniProt P08631); assay: Kinase screening service: HCK; assay type: biochemical; settings: average of duplicates
T20 construct: purchased Life Technologies Corporation (Kinase Screening Service)
Procedure: as §1

PKN1 (PRK1) = molecular target: T21, PKN1 (PRK1) (Homo sapiens, UniProt Q16512); assay: Kinase screening service: PKN1; assay type: biochemical; settings: average of duplicates
T21 construct: purchased Life Technologies Corporation (Kinase Screening Service)
Procedure: as §1

GSK3A (GSK3 alpha) = molecular target: T22, GSK3A (GSK3 alpha) (Homo sapiens, UniProt P49840); assay: Kinase screening service: GSK3A; assay type: biochemical; settings: average of duplicates
T22 construct: purchased Life Technologies Corporation (Kinase Screening Service)
Procedure: as §1

[2] = molecular target: T23, MAP2K1 (MEK1) S218D S222D (Homo sapiens, UniProt Q02750, S218D/S222D); assay: Kinase screening service: MAP2K1 S218D S222D; assay type: biochemical; settings: average of duplicates
T23 construct: purchased Life Technologies Corporation (Kinase Screening Service)
Procedure: as §1

MYO3B (MYO3 beta) = molecular target: T24, MYO3B (MYO3 beta) (Homo sapiens, UniProt Q8WXR4); assay: Kinase screening service: MYO3B; assay type: biochemical; settings: average of duplicates
T24 construct: purchased Life Technologies Corporation (Kinase Screening Service)
Procedure: as §1

MAP3K3 (MEKK3) = molecular target: T25, MAP3K3 (MEKK3) (Homo sapiens, UniProt Q99759); assay: Kinase screening service: MAP3K3; assay type: biochemical; settings: average of duplicates
T25 construct: purchased Life Technologies Corporation (Kinase Screening Service)
Procedure: as §1

HT-22 cells = assay: Effect on ROS (DHE staining) in HT-22 cells; assay type: cell-based; settings: PT109 at 10 μM, 2 mM glutamine 10 h
Procedure: DHE staining was adopted to detect the formation of oxygen free radicals. The HT-22 cells were cultured in DMEM+10% fetal bovine serum and placed in a 5% CO2 incubator at 37° C. The cells were seeded in a poly-lysine-coated 24-well plate at a suitable density. After cell adherence, the PT109 separately prepared in the medium was added to the corresponding wells. Upon treatment for 30 min, 2 mM glutamine was added and treated for 10 h. The cells were harvested, and incubated with DHE dye for about 30 min. DHE dye was washed, and the fluorescence intensity of DHE was detected by a high-content system.

LTK (TYK1) = molecular target: T26, LTK (TYK1) (Homo sapiens, UniProt P29376); assay: Kinase screening service: LTK; assay type: biochemical; settings: average of duplicates
T26 construct: purchased Life Technologies Corporation (Kinase Screening Service)
Procedure: as §1

RPS6KA3 (RSK2) = molecular target: T27, RPS6KA3 (RSK2) (Homo sapiens, UniProt P51812); assay: Kinase screening service: RPS6KA3; assay type: biochemical; settings: average of duplicates
T27 construct: purchased Life Technologies Corporation (Kinase Screening Service)
Procedure: as §1

GRK5 = molecular target: T28, GRK5 (Homo sapiens, UniProt P34947); assay: Kinase screening service: GRK5; assay type: biochemical; settings: average of duplicates
T28 construct: purchased Life Technologies Corporation (Kinase Screening Service)
Procedure: as §1

HIPK1 (Myak) = molecular target: T29, HIPK1 (Myak) (Homo sapiens, UniProt Q86Z02); assay: Kinase screening service: HIPK1; assay type: biochemical; settings: average of duplicates
T29 construct: purchased Life Technologies Corporation (Kinase Screening Service)
Procedure: as §1

CSNK1G3 (CK1 gamma 3) = molecular target: T30, CSNK1G3 (CK1 gamma 3) (Homo sapiens, UniProt Q9Y6M4); assay: Kinase screening service: CSNK1G3; assay type: biochemical; settings: average of duplicates
T30 construct: purchased Life Technologies Corporation (Kinase Screening Service)
Procedure: as §1

PHKG1 = molecular target: T31, PHKG1 (Homo sapiens, UniProt Q16816); assay: Kinase screening service: PHKG1; assay type: biochemical; settings: average of duplicates
T31 construct: purchased Life Technologies Corporation (Kinase Screening Service)
Procedure: as §1

CDK1/cyclin B = molecular target: T32, CDK1/cyclin B (Homo sapiens, UniProt P06493); assay: Kinase screening service: CDK1/cyclin B; assay type: biochemical; settings: average of duplicates
T32 construct: purchased Life Technologies Corporation (Kinase Screening Service)
Procedure: as §1

[3] = molecular target: T33, PIK3CA/PIK3R1 (p110 alpha/p85 alpha) (Homo sapiens, UniProt P42336); assay: Kinase screening service: PIK3CA/PIK3R1; assay type: biochemical; settings: average of duplicates
T33 construct: purchased Life Technologies Corporation (Kinase Screening Service)
Procedure: as §1

T21 sequence (Q16512 whole entry): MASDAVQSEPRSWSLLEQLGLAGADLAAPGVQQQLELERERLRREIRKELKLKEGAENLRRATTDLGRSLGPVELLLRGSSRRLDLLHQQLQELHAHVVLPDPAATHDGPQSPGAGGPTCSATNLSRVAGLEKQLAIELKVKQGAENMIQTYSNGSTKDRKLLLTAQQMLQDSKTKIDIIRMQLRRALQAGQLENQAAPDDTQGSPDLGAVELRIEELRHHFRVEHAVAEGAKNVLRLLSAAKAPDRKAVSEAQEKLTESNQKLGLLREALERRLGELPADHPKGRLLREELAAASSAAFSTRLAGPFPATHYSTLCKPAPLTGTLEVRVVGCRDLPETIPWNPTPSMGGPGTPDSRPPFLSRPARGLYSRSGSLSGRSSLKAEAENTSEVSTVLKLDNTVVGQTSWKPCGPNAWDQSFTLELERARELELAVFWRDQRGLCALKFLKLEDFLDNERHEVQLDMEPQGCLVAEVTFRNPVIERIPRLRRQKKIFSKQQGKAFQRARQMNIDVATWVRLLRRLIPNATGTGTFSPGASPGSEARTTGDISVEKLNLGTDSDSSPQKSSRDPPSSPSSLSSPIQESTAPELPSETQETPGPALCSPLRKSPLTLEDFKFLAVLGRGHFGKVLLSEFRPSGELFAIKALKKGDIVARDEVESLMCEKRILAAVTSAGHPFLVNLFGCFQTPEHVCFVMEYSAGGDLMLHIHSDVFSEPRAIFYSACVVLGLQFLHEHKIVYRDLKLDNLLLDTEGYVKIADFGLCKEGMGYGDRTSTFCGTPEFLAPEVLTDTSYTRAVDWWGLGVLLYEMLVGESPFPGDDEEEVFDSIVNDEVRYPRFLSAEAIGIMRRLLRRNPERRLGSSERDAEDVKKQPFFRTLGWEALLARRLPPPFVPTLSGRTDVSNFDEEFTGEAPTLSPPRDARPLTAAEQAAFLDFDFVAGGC
T13 sequence (Q96BR1 whole entry): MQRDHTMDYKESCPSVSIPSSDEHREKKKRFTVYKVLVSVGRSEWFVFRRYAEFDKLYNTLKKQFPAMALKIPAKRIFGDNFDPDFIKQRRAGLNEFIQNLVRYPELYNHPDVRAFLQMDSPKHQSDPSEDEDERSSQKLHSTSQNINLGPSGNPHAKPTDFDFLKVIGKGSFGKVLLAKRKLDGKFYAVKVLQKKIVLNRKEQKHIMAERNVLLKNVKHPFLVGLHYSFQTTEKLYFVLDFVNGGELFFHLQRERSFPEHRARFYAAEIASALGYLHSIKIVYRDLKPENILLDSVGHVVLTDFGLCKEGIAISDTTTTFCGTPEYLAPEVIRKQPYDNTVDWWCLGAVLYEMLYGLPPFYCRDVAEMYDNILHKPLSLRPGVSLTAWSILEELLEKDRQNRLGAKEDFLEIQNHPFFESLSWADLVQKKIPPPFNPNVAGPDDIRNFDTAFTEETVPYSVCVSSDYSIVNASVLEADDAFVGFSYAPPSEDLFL
T15 sequence (P48736 whole entry): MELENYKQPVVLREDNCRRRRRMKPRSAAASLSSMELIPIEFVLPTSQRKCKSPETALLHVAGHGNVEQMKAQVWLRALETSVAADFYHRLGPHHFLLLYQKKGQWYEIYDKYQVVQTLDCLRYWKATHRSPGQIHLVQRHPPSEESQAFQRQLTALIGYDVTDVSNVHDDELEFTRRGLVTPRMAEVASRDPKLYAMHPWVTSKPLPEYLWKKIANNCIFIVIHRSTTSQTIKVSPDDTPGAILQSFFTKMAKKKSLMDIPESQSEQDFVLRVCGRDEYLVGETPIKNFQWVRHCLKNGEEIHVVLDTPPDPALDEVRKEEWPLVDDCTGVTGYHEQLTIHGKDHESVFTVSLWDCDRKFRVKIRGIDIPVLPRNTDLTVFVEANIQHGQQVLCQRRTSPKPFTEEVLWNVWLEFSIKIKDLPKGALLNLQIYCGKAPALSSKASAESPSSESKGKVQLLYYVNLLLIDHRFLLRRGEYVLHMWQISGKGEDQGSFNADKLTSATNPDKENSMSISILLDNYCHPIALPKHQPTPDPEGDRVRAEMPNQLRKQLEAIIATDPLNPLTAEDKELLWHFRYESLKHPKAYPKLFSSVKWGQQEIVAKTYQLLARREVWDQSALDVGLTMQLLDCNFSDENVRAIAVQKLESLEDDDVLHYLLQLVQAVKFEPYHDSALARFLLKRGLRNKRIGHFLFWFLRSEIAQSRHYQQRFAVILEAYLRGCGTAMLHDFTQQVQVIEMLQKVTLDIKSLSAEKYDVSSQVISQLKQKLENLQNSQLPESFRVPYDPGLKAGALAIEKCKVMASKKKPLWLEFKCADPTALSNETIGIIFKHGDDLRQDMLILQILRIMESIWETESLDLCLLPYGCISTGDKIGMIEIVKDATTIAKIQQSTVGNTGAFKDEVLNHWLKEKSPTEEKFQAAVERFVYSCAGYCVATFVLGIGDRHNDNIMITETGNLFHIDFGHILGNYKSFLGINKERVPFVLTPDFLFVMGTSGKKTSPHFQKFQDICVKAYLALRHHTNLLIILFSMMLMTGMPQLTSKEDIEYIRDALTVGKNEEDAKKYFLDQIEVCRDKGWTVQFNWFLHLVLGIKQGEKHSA
T20 sequence (P08631 whole entry): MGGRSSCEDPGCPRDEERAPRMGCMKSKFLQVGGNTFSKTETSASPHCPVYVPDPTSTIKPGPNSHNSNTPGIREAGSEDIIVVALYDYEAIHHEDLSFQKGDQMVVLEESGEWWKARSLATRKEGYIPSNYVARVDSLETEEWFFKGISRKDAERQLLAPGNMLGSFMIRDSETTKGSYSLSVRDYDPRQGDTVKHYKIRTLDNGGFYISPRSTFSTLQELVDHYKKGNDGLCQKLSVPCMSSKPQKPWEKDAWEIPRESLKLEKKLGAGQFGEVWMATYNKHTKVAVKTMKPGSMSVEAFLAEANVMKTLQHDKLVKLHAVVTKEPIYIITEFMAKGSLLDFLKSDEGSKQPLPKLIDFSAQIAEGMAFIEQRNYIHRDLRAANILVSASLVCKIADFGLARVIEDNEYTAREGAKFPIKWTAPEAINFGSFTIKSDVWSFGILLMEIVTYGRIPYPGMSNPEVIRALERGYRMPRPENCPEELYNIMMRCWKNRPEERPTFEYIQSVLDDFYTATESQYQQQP
T29 sequence (Q86Z02 whole entry): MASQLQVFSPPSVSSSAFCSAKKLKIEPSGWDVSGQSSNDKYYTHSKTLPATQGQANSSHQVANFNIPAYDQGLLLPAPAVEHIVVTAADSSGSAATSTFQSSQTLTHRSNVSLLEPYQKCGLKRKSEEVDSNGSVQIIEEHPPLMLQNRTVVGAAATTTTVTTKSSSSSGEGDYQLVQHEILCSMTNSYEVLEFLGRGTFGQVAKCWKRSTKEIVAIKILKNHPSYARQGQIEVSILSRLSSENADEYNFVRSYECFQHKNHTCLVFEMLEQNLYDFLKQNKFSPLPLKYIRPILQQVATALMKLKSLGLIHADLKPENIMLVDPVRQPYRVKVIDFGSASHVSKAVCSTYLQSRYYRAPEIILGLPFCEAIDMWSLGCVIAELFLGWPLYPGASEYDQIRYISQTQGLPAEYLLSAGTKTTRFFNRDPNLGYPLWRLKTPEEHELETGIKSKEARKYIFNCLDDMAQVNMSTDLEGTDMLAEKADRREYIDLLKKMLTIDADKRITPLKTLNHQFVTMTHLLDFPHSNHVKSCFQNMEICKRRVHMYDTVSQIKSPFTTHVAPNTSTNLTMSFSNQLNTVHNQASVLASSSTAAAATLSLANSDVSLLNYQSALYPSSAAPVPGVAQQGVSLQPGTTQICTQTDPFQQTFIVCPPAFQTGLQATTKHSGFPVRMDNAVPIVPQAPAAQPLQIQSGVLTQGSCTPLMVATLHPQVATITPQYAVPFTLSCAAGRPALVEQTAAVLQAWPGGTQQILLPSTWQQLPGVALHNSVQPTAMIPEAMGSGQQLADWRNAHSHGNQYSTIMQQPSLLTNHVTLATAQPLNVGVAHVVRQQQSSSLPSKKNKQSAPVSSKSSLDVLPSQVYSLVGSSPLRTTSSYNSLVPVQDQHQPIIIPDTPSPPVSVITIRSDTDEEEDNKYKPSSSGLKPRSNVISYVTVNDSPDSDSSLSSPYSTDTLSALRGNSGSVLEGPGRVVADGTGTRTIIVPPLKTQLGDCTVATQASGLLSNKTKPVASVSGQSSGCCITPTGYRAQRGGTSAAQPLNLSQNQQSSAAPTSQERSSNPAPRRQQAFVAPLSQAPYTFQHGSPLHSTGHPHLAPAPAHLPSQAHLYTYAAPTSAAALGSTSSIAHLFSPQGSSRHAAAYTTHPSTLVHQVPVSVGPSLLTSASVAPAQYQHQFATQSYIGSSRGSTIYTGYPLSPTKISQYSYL
T22 sequence (P49840 whole entry): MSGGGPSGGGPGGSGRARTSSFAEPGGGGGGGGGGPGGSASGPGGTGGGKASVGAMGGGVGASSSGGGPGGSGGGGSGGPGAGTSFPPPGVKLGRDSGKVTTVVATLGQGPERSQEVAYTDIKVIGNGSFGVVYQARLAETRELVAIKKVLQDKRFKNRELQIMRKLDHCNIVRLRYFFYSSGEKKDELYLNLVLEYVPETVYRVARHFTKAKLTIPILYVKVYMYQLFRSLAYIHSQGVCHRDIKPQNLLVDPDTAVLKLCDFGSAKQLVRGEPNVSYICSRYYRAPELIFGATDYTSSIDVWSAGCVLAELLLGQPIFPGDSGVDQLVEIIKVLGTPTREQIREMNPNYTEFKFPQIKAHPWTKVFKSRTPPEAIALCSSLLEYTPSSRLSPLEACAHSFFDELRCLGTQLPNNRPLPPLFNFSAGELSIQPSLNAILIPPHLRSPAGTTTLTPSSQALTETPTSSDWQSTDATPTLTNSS

inhibition at 10 µM [1]: 48%
inhibition at 10 µM (PAK6): -16%
inhibition at 10 µM (FGFR1): -3%
inhibition at 10 µM (PLK4): 35%
inhibition at 10 µM (PIK3C3 (hVPS34)): 11%
inhibition at 10 µM (PTK2B (FAK2)): 8%
inhibition at 10 µM (FLT1 (VEGFR1)): 3%
inhibition at 10 µM (MST1R (RON)): 35%
inhibition at 10 µM (AKT1 (PKB alpha)): 22%
inhibition at 10 µM (DYRK1A): 16%
inhibition at 10 µM (CSNK1G2 (CK1 gamma 2)): 15%
inhibition at 10 µM (PDK1 Direct): 51%
IC50 (SGK3): 26.4 µM
inhibition at 10 µM (WNK3): 7%
inhibition at 10 µM (PIK3CG (p110 gamma)): 9%
inhibition at 10 µM (PIK3C2A (PI3K-C2 alpha)): 3%
inhibition at 10 µM (MAP4K4 (HGK)): 34%
inhibition at 10 µM (CSNK2A1 (CK2 alpha 1)): 14%
inhibition at 10 µM (CSNK1G1 (CK1 gamma 1)): 9%
inhibition at 10 µM (HCK): 9%
inhibition at 10 µM (PKN1 (PRK1)): 16%
inhibition at 10 µM (GSK3A (GSK3 alpha)): 41%
inhibition at 10 µM [2]: 13%
inhibition at 10 µM (MYO3B (MYO3 beta)): 43%
inhibition at 10 µM (MAP3K3 (MEKK3)): 3%
inhibition at 10 µM (LTK (TYK1)): 40%
inhibition at 10 µM (RPS6KA3 (RSK2)): 54%
inhibition at 10 µM (GRK5): 2%
inhibition at 10 µM (HIPK1 (Myak)): 0%
inhibition at 10 µM (CSNK1G3 (CK1 gamma 3)): 24%
inhibition at 10 µM (PHKG1): 10%
inhibition at 10 µM (CDK1/cyclin B): 14%
inhibition at 10 µM [3]: 56%
Structure (SMILES): O=C(CCCCC1CCSS1)NC1CCC(Nc2cccc3cnccc23)CC1 (stereo not shown) [PT109, 5-(1,2-dithiolan-3-yl)-N-(4-(isoquinolin-5-ylamino)cyclohexyl) pentanamide]
glutamine-induced ROS elevation (DHE fluorescence) (HT-22 cells): significantly reduced
